Results: patent US7595401B2, “Therapeutic compounds and their use in cancer” (Myriad Pharmaceuticals, Inc., priority 2006, dated 2009)

Each compound was assayed on purified human Hsp90 (assay: Binding Assay: fluorescence polarization with BODIPY-labeled geldanamycin). Details: 5 μM compound, BODIPY-GM 10 nM, Hsp90 30 nM.
Outline: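 Compounds in 2% DMSO final compete with 10 nM BODIPY-GM for 30 nM purified human Hsp90, incubated overnight at room temperature in pH 7.3 HEPES buffer containing Na2MoO4 and DTT. Polarization (mP, ex/em 485/530) normalized to DMSO gives percent inhibition; autofluorescence-confounded data excluded.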

| Compound | % Inhibition at 5 μM Compound Concentration |
| --- | --- |
| COc1ccc(OC)c(Sc2nc3c(N)ncn(CCC4CCNCC4)c-3n2)c1 [Example 467, 8-[(2,5-Dimethoxyphenyl)thio]-3-(2-piperidin-4-ylethyl)-3 H-purin-6-amine] | 0% |
| Nc1ncn(CCC2CCNCC2)c2nc(Sc3cc4c(cc3Br)OCO4)nc1-2 [Example 468, 8-[(6-Bromo-1,3-benzodioxol-5-yl)thio]-3-(2-piperidin-4-ylethyl)-3 H-purin-6-amine] | 9% |
| CC(C)N1CCN(CCn2cnc(N)c3nc(Sc4cc5c(cc4Br)OCO5)nc2-3)CC1 [Example 488, 8-[(6-Bromo-1,3-benzodioxol-5-yl)thio]-3-[2-(4-isopropylpiperazin-1-yl)ethyl]-3H-purin-6-amine] | 29% |
| COc1ccc(OC)c(Sc2nc3c(N)ncn(CCN4CCN(C5CCCC5)CC4)c-3n2)c1 [Example 495, 3-[2-(4-Cyclopentylpiperazin-1-yl)ethyl]-8-[(2,5-dimethoxyphenyl)thio]-3 H-purin-6-amine] | 6% |
| C=Cn1cnc(N)c2nc(Sc3cc4c(cc3Br)OCO4)nc1-2 [Example 499, 8-(6-bromo-benzo[1,3]dioxol-5-ylsulfanyl)-3-vinyl-3H-6-ylamine] | 21% |

Same assay, conditions: BODIPY-GM 10 nM, Hsp90 30 nM

| Compound | IC50 |
| --- | --- |
| CC(C)(C)OC(=O)N1CCC(CCn2c(Sc3cc4c(cc3Br)OCO4)nc3c(N)ncnc32)C(C)(C)C1 (stereo not shown) [Example 464, tert-Butyl 4-(2-{6-amino-8-[(6-bromo-1,3-benzodioxol-5-yl)thio]-9H-purin-9-yl}ethyl)-3,3-dimethylpiperidine-1-carboxylate] | 400 nM |
| Nc1ncnc2c1nc(Sc1cc3c(cc1Br)OCO3)n2CCC1CCNCC1 [Example 465, 8-[(6-bromo-1,3-benzodioxol-5-yl)thio]-9-(2-piperidin-4-ylethyl)-9H-purin-6-amine] | 470 nM |
| Nc1ncnc2c1nc(Sc1cc3c(cc1Br)OCO3)n2CCC1CCCNC1 (stereo not shown) [Example 466, 8-[(6-Bromo-1,3-benzodioxol-5-yl)thio]-9-(2-piperidin-3-ylethyl)-9H-purin-6-amine] | 60 nM |
| COc1ccc(OC)c(Sc2nc3c(N)ncnc3n2CCC2CCNCC2)c1 [Example 469, 8-[(2,5-Dimethoxyphenyl)thio]-9-(2-piperidin-4-ylethyl)-9 H-purin-6-amine] | 8800 nM |
| COc1ccc(OC)c(Sc2nc3c(N)ncnc3n2CCC2CCCNC2)c1 (stereo not shown) [Example 470, 8-[(2,5-Dimethoxyphenyl)thio]-9-(2-piperidin-3-ylethyl)-9 H-purin-6-amine] | 280 nM |
| Nc1ncnc2c1nc(Sc1cc3c(cc1Br)OCO3)n2CC=C1CCNCC1 [Example 471, 8-[(6-Bromo-1,3-benzodioxol-5-yl)thio]-9-(2-piperidin-4-ylideneethyl)-9 H-purin-6-amine] | 600 nM |
| CC1(C)CNCCC1CCn1c(Sc2cc3c(cc2Br)OCO3)nc2c(N)ncnc21 (stereo not shown) [Example 472, 8-[(6-Bromo-1,3-benzodioxol-5-yl)thio]-9-[2-(3,3-dimethylpiperidin-4-yl)ethyl]-9 H-purin-6-amine] | 70 nM |
| Nc1ncnc2c1nc(Sc1cc3c(cc1Br)OCO3)n2CC[C@H]1CCCNC1 [Example 473, 8-[(6-Bromo-1,3-benzodioxol-5-yl)thio]-9-{2-[(3R)-piperidin-3-yl]ethyl}-9 H-purin-6-amine] | 35 nM |
| Nc1ncnc2c1nc(Sc1cc3c(cc1Br)OCO3)n2CC[C@@H]1CCCNC1 [Example 474, 8-[(6-Bromo-1,3-benzodioxol-5-yl)thio]-9-{2-[(3S)-piperidin-3-yl]ethyl}-9 H-purin-6-amine] | 140 nM |
| Nc1ncnc2c1nc(Sc1cc3c(cc1Br)OCO3)n2CC[C@H]1CCCCN1 [Example 475, 8-[(6-Bromo-1,3-benzodioxol-5-yl)thio]-9-{2-[(2R)-piperidin-2-yl]ethyl}-9 H-purin-6-amine] | 172 nM |
| Nc1ncnc2c1nc(Sc1cc3c(cc1Br)OCO3)n2CCC1CCNC1 (stereo not shown) [Example 476, 8-[(6-Bromo-1,3-benzodioxol-5-yl)thio]-9-(2-pyrrolidin-3-ylethyl)-9 H-purin-6-amine] | 90 nM |
| Nc1ncnc2c1nc(Sc1cc3c(cc1Br)OCO3)n2CC[C@@H]1CCCCN1 [Example 477, 8-[(6-Bromo-1,3-benzodioxol-5-yl)thio]-9-{2-[(2S)-piperidin-2-yl]ethyl}-9 H-purin-6-amine] | 467 nM |
| Nc1ncnc2c1nc(Sc1cc3c(cc1Br)OCO3)n2CC[C@H]1CC[C@@H](N)CC1 [Example 481, 9-[2-(cis-4-Aminocyclohexyl)ethyl] 8-[(6-bromo-1,3-benzodioxol-5-yl)thio]-9 H-purin-6-amine] | 50 nM |
| Nc1ncnc2c1nc(Sc1cc3c(cc1Br)OCO3)n2CCC1CNC1 [Example 483, 9-(2-Azetidin-3-ylethyl)-8-[(6-bromo-1,3-benzodioxol-5-yl)thio]-9 H-purin-6-amine] | 184 nM |
| Nc1ncnc2c1nc(Sc1cc3c(cc1Br)OCO3)n2CC[C@@H]1CCNC1 [Example 484, 8-[(6-Bromo-1,3-benzodioxol-5-yl)thio]-9-{2-[(3S)-pyrrolidin-3-yl]ethyl}-9 H-purin-6-amine] | 600 nM |
| COc1ccc(OC)c(Sc2nc3c(N)ncnc3n2CCN2C(=O)CCCC2=O)c1 [Example 485, 1-(2-{6-Amino-8-[(2,5-dimethoxyphenyl)thio]-9H-purin-9-yl}ethyl)piperidine-2,6-dione] | 1000 nM |

| Compound | IC50 |
| --- | --- |
| C=Cn1c(S(=O)(=O)c2cc(OC)ccc2OC)nc2c(N)ncnc21 [Example 486, 8-(2,5-dimethoxy-phenylsulfonyl)-9-vinyl-9H -purin-6-ylamine] | 7000 nM |
| CC(C)N1CCN(CCn2c(Sc3cc4c(cc3Br)OCO4)nc3c(N)ncnc32)CC1 [Example 487, 8-[(6-Bromo-1,3-benzodioxol-5-yl)thio]-9-[2-(4-isopropylpiperazin-1-yl)ethyl]-9H-purin-6-amine] | 900 nM |
| COc1ccc(OC)c(Sc2nc3c(N)ncn(CCN4CCCCC4)c-3n2)c1 [Example 490, 8-[(2,5-Dimethoxyphenyl)thio]-3-(2-piperidin-1-ylethyl)-3 H-purin-6-amine] | 25000 nM |
| Nc1ncn(CCN2CCCCC2)c2nc(Sc3cc4c(cc3Br)OCO4)nc1-2 [Example 492, 8-[(6-Bromo-1,3-benzodioxol-5-yl)thio]-3-(2-piperidin-1-ylethyl)-3 H-purin-6-amine] | 900 nM |
| COc1ccc(OC)c(Sc2nc3c(N)ncnc3n2CCN2CCN(C(C)C)CC2)c1 [Example 493, 8-[(2,5-Dimethoxyphenyl)thio]-9-[2-(4-isopropylpiperazin-1-yl)ethyl]-9 H-purin-6-amine] | 8900 nM |
| COc1ccc(OC)c(Sc2nc3c(N)ncnc3n2CCN2CCN(C3CCCC3)CC2)c1 [Example 494, 9-[2-(4-Cyclopentylpiperazin-1-yl)ethyl]-8-[(2,5-dimethoxyphenyl)thio]-9 H-purin-6-amine] | 5500 nM |
| Nc1ncnc2c1nc(Sc1cc3c(cc1Br)OCO3)n2CCN1C(=O)CCCC1=O [Example 496, 1-(2-{6-Amino-8-[(6-bromo-1,3-benzodioxol-5-yl)thio]-9H-purin-9-yl}ethyl)piperidine-2,6-dione] | 81 nM |
| Nc1ncn(CCN2C(=O)CCCC2=O)c2nc(Sc3cc4c(cc3Br)OCO4)nc1-2 [Example 497, 1-(2-{6-amino-8-[(6-bromo-1,3-benzodioxol-5-yl)thio]-3H-purin-3-yl}ethyl)piperidine-2,6-dione] | 25000 nM |
| C=Cn1c(Sc2cc3c(cc2Br)OCO3)nc2c(N)ncnc21 [Example 498, 8-(6-bromo-benzo[1,3]dioxol-5-ylsulfanyl)-9-vinyl-9H-6-ylamine] | 525 nM |
| COC(=O)CCCNC(=O)N1CCC(CCn2c(Sc3cc4c(cc3Br)OCO4)nc3c(N)ncnc32)CC1 [Example 500, Methyl 4-({[4-(2-{6-amino-8-[(6-bromo-1,3-benzodioxol-5-yl)thio]-9H-purin-9-yl}ethyl)piperidin-1-yl]carbonyl}amino)butanoate] | 60 nM |
| Nc1ncnc2c1nc(Sc1cc3c(cc1Br)OCO3)n2CCC1CCN(C(=O)NCCCC(=O)O)CC1 [Example 502, 4-({[4-(2-{6-Amino-8-[(6-bromo-1,3-benzodioxol-5-yl)thio]-9 H-purin-9-yl}ethyl)piperidin-1-yl]carbonyl}amino)butanoic acid] | 140 nM |
| COC(=O)CCCNC(=O)N1CCCC(CCn2c(Sc3cc4c(cc3Br)OCO4)nc3c(N)ncnc32)C1 (stereo not shown) [Example 503, Methyl 4-({[3-(2-{6-amino-8-[(6-bromo-1,3-benzodioxol-5-yl)thio]-9 H-purin-9-yl}ethyl)piperidin-1-yl]carbonyl}amino)butanoate] | 190 nM |
| COC(=O)[C@H](CCSC)NC(=O)N1CCC(CCn2c(Sc3cc4c(cc3Br)OCO4)nc3c(N)ncnc32)CC1 [Example 505, Methyl N-{[4-(2-{6-amino-8-[(6-bromo-1,3-benzodioxol-5-yl)thio]-9 H-purin-9-yl}ethyl)piperidin-1-yl]carbonyl}-L-methioninate] | 85 nM |
| COC(=O)[C@H](CCSC)NC(=O)N1CCCC(CCn2c(Sc3cc4c(cc3Br)OCO4)nc3c(N)ncnc32)C1 (stereo partly drawn) [Example 507, Methyl N-{[3-(2-{6-amino-8-[(6-bromo-1,3-benzodioxol-5-yl)thio]-9 H-purin-9-yl}ethyl)piperidin-1-yl]carbonyl}-L-methioninate] | 405 nM |
| Nc1ncnc2c1nc(Sc1cc3c(cc1Br)OCO3)n2CCC1CCN(C(=O)C2CCCC2)CC1 [Example 510, 8-[(6-Bromo-1,3-benzodioxol-5-yl)thio]-9-{2-[1-(cyclopentylcarbonyl)piperidin-4-yl]ethyl}-9 H-purin-6-amine] | 250 nM |
| Nc1ncnc2c1nc(Sc1cc3c(cc1Br)OCO3)n2CCC1CCN(C(=O)C2CCC2)CC1 [Example 512, 8-[(6-Bromo-1,3-benzodioxol-5-yl)thio]-9-{2-[1-(cyclobutylcarbonyl)piperidin-4-yl]ethyl}-9 H-purin-6-amine] | 110 nM |
